{"source": "patent US20030129629A1", "about": "“Methods and compositions for the identification, assessment, prevention, and therapy of human cancers” (Millennium Pharmaceuticals, Inc., priority 2000, published 2003)", "key": {"[1]": {"test_system": "60 cancer cell lines (NCI 60 cancer cell line series)", "assay": "NCI-DTP in vitro cancer screen, sulforhodamine B (SRB) growth inhibition, 48 hour exposure", "format": "cell-based, human", "procedure,_shortened": "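NCI-DTP panel of 60 cancer cell lines plated day 0 at line-specific densities, exposed from day 1 to compound at 5 ten-fold-spaced doses in duplicate wells. After 48 h, cell mass stained with sulforhodamine B; −log GI50 derived from dose–response curves, averaged, and classed Low, Medium or High sensitivity.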"}, "[2]": {"test_system": "60 cancer cell lines (NCI 60 cancer cell line series)", "conditions": "cited from earlier work"}}, "note": "Where two headings read alike, the source gives them in different places.", "data": [{"smiles": "CC(=O)O[C@H]1C(=O)[C@@]2(C)[C@H]([C@H](OC(=O)c3ccccc3)[C@]3(O)C[C@H](OC(=O)[C@H](O)[C@@H](NC(=O)c4ccccc4)c4ccccc4)C(C)=C1C3(C)C)[C@]1(OC(C)=O)CO[C@@H]1C[C@@H]2O", "note": "[TAXOL, paclitaxel, reference compound]", "values": [{"measurement": "classification of cell line as Low(1), Medium(2), High(3) sensitivity to compound", "setting": "[1]; Breast BT-549 CL5013", "result": 2}, {"measurement": "classification of cell line as Low(1), Medium(2), High(3) sensitivity to compound", "setting": "[1]; Breast MCF7/ADRr CL5002", "result": 1}, {"measurement": "classification of cell line as Low(1), Medium(2), High(3) sensitivity to compound", "setting": "[1]; Breast MDA-MB-231 CL5005", "result": 2}, {"measurement": "classification of cell line as Low(1), Medium(2), High(3) sensitivity to compound", "setting": "[1]; Breast MDA-MB-435 CL5011", "result": 3}, {"measurement": "classification of cell line as Low(1), Medium(2), High(3) sensitivity to compound", "setting": "[1]; Breast MDA-N CL5012", "result": 3}, {"measurement": "classification of cell line as Low(1), Medium(2), High(3) sensitivity to compound", "setting": "[1]; CNS SF-268 CL12014", "result": 2}, {"measurement": "classification of cell line as Low(1), Medium(2), High(3) sensitivity to compound", "setting": "[1]; CNS SF-295 CL12015", "result": 2}, {"measurement": "classification of cell line as Low(1), Medium(2), High(3) sensitivity to compound", "setting": "[1]; CNS SF-539 CL12016", "result": 2}, {"measurement": "classification of cell line as Low(1), Medium(2), High(3) sensitivity to compound", "setting": "[1]; CNS SNB-19 CL12002", "result": 2}, {"measurement": "classification of cell line as Low(1), Medium(2), High(3) sensitivity to compound", "setting": "[1]; CNS U251(I) CL12009", "result": 2}, {"measurement": "classification of cell line as Low(1), Medium(2), High(3) sensitivity to compound", "setting": "[1]; Colon HCT-15 CL4015", "result": 1}, {"measurement": "classification of cell line as Low(1), Medium(2), High(3) sensitivity to compound", "setting": "[1]; Colon HCT-116 CL4003", "result": 3}, {"measurement": "classification of cell line as Low(1), Medium(2), High(3) sensitivity to compound", "setting": "[1]; Colon HT29(I) CL4001", "result": 3}, {"measurement": "classification of cell line as Low(1), Medium(2), High(3) sensitivity to compound", "setting": "[1]; Colon KM12 CL4017", "result": 2}, {"measurement": "classification of cell line as Low(1), Medium(2), High(3) sensitivity to compound", "setting": "[1]; Leukemia MOLT-4 CL7006", "result": 2}, {"measurement": "classification of cell line as Low(1), Medium(2), High(3) sensitivity to compound", "setting": "[1]; Leukemia RPMI-8226(I) CL7010", "result": 3}, {"measurement": "classification of cell line as Low(1), Medium(2), High(3) sensitivity to compound", "setting": "[1]; Melanoma M14 CL10014", "result": 2}, {"measurement": "sensitivity classification Low(1)/Medium(2)/High(3)", "setting": "[1]; NSCLC NCI-H23(I) CL1001", "result": 2}, {"measurement": "sensitivity classification Low(1)/Medium(2)/High(3)", "setting": "[1]; NSCLC NCI-H332M CL1017", "result": 2}, {"measurement": "sensitivity classification Low(1)/Medium(2)/High(3)", "setting": "[1]; Ovarian IGROV1 CL6010", "result": 2}, {"measurement": "sensitivity classification Low(1)/Medium(2)/High(3)", "setting": "[1]; Ovarian OVCAR-4 CL6002", "result": 1}, {"measurement": "sensitivity classification Low(1)/Medium(2)/High(3)", "setting": "[1]; Ovarian OVCAR-8 CL6005", "result": 2}, {"measurement": "sensitivity classification Low(1)/Medium(2)/High(3)", "setting": "[1]; Ovarian SK-OV-3 CL6011", "result": 2}, {"measurement": "sensitivity classification Low(1)/Medium(2)/High(3)", "setting": "[1]; Prostate DU-145 CL11003", "result": 2}, {"measurement": "sensitivity classification Low(1)/Medium(2)/High(3)", "setting": "[1]; Prostate PC-3(I) CL11001", "result": 2}, {"measurement": "sensitivity classification Low(1)/Medium(2)/High(3)", "setting": "[1]; Renal 786-0 CL9018", "result": 2}, {"measurement": "sensitivity classification Low(1)/Medium(2)/High(3)", "setting": "[1]; Renal ACHN CL9023", "result": 1}, {"measurement": "sensitivity classification Low(1)/Medium(2)/High(3)", "setting": "[1]; Renal CAKI-1 CL9015", "result": 1}, {"measurement": "sensitivity classification Low(1)/Medium(2)/High(3)", "setting": "[1]; Renal RXF-393 CL9016", "result": 2}, {"measurement": "sensitivity classification Low(1)/Medium(2)/High(3)", "setting": "[1]; Renal SN12C CL9008", "result": 2}, {"measurement": "sensitivity classification Low(1)/Medium(2)/High(3)", "setting": "[1]; Renal UO-31 CL9004", "result": 1}, {"measurement": "−Log (GI50)", "setting": "[2]; Breast MCF7/ADRr CL5002", "result": 5.5}, {"measurement": "−Log (GI50)", "setting": "[2]; Colon COLO-250 CL4010", "result": 8.0}, {"measurement": "−Log (GI50)", "setting": "[2]; Melanoma SK-MEL-5 CL10007", "result": 6.3}, {"measurement": "−Log (GI50)", "setting": "[2]; Melanoma UACC-62 CL10020", "result": 8.1}, {"measurement": "−Log (GI50)", "setting": "[2]; Melanoma UACC-257 CL10021", "result": 7.1}, {"measurement": "−Log (GI50)", "setting": "[2]; NSCLC A549/ATCC CL1004", "result": 8.0}, {"measurement": "−Log (GI50)", "setting": "[2]; NSCLC EKVX CL1008", "result": 4.8}, {"measurement": "−Log (GI50)", "setting": "[2]; NSCLC HOP-62 CL1026", "result": 7.4}, {"measurement": "−Log (GI50)", "setting": "[2]; NSCLC HOP-92 CL1029", "result": 5.7}, {"measurement": "−Log (GI50)", "setting": "[2]; Ovarian OVCAR-5 CL6003", "result": 6.8}]}]}
